Laboratory results reported in US11896592B2, “Certain triazolopyridines and triazolopyrazines, compositions thereof and methods of use therefor” (Hutchison Medipharma Limited, priority 2009, dated 2024).
pIC50: −log10 of the molar value.

Target: T1, Recombinant human Met (c-Met) (Homo sapiens, UniProt P08581)
T1 construct: purchased Invitrogen PV3143
Experiment: Inhibition of c-Met kinase activity using Transcreener FP assay
Type: biochemical
Details: Poly E4Y substrate, 28° C. 45 min, read-out: IC50, inhibition of c-Met kinase activity
Experimental: Compound dilution: dilute test articles to 5 folds of the testing concentration using 20% DMSO.
The mixture is kept on ice until use;
Prepare ATP standard curve stock as following:
3. Enzymatic reaction: in 96-well reaction plate
Add 5 μL of test article or 5 μL of 20% DMSO or 5 μL of 500 mM EDTA;
Add 10 μL of Enzyme/Substrate stock;
Add 10 μL of ATP Diluent to begin the enzyme reaction and mix on plate shaker;
Add 5 μL of 20% DMSO, 10 μL of assay buffer and 10 μL of ATP standard curve stock into standard curve wells;
Gently shake at 28° C. for 45 min.
4. Stop reaction and detect ADP
Prepare Detection Mix: According to the procedures described in the Assay kit, Alexa633 tracer, ADP antibody and stop & detect buffer were added into H2O and mixed thoroughly. Prepare Tracer Only control: According to the procedures described in the Assay kit, ADP Alexa633 tracer and stop & detect buffer were added to H2O and mixed throughly.
Prepare No Tracer control: According to the procedures described in the Assay kit, the stop & detect buffer was diluted with H2O;
Add 25 μL of detection mix, Tracer Only control and No Tracer control into corresponding wells, respectively;
The reaction plate was gently shaken at 28° C. for 1 h;
Florescence polarization (FP) was measured on TECAN F500. Excitation wavelength: 610 nm, Emission wavelength: 670 nm.
Compound well [ADP] represents the ADP concentration of the compound well. Positive control well [ADP] represents the ADP concentration of the 20% DMSO well. Conversion of mP value to ADP concentration is based on the formula which is determined by standard curve.
IC50: calculated using XL-Fit 2.0 software.

T1 sequence (P08581 956-1390 limits assumed): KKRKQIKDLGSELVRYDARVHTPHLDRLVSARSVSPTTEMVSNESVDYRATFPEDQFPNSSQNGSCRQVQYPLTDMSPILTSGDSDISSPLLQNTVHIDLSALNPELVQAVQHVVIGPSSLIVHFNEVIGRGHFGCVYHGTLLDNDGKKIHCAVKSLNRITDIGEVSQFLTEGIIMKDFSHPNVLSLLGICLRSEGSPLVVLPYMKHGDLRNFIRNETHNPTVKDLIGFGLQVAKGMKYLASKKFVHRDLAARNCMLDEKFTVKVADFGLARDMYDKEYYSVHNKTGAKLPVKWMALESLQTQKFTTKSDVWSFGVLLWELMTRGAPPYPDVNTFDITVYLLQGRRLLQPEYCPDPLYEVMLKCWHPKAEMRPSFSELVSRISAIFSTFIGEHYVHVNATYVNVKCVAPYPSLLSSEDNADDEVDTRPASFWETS

Compound | pIC50
Cc1csc(Nc2cnc3nnn(Cc4ccc5ncccc5c4)c3n2)n1 [Compound 172] | 7.00 to 9.00
Cn1cc(-c2cnc3nnn(Cc4ccc5ncsc5n4)c3n2)cn1 [Compound 289] | 6.00 to 7.00
c1nc2ccc(Cn3nnc4ncc(-c5cnn(C6CNC6)c5)nc43)cn2n1 [Compound 286] | 6.00 to 7.00
c1cnc2ccc(Cn3nnc4ncc(Nc5ccc(N6CCOCC6)cn5)nc43)cc2c1 [Compound 165] | 7.00 to 9.00
Cn1cc(-c2cc(Cl)c3nnn(Cc4ccc5ncccc5c4)c3n2)cn1 [Compound 263, 6-((7-Chloro-5-(1-methyl-1H-pyrazol-4-yl)-3H-[1,2,3]triazolo[4,5-b]pyridin-3-yl)methyl)quinoline] | 6.00 to 7.00
Cn1cc(-c2ccc3nnn(Cc4ccc5ncsc5n4)c3n2)cn1 [Compound 142] | 6.00 to 7.00
FC(F)(F)c1ccnc(Nc2cnc3nnn(Cc4ccc5ncccc5c4)c3n2)c1 [Compound 220] | 7.00 to 9.00
Brc1cnc2nnn(Cc3ccc4ncnn4c3)c2n1 [Compound 284] | 6.00 to 7.00
COc1ccc(Nc2ccc3nnn(Cc4ccc5ncccc5c4)c3n2)nc1 [Compound 234] | 6.00 to 7.00
Cn1cc(Nc2cnc3nnn(Cc4ccc5ncccc5c4)c3n2)cn1 [Compound 173] | 7.00 to 9.00
COCCn1cc(-c2cnc3nnn(Cc4ccc5nccn5c4)c3n2)cn1 [Compound 58] | 7.00 to 9.00
OCCn1cc(-c2cnc3nnn(Cc4cc5cccnc5s4)c3n2)cn1 [Compound 5] | 6.00 to 7.00
c1cnc2[nH]cc(Cn3nnc4ccc(-c5cnn(C6CCNCC6)c5)nc43)c2c1 [Compound 116] | 6.00 to 7.00
Cc1cncc(Nc2cnc3nnn(Cc4ccc5ncccc5c4)c3n2)c1 [Compound 158] | 7.00 to 9.00
CC(=O)Nc1cc(-c2cnn(C)c2)nc2c1nnn2Cc1ccc2ncccc2c1 [Compound 261, N-(5-(1-methyl-1H-pyrazol-4-yl)-3-(quinolin-6-ylmethyl)-3H-[1,2,3]triazolo[4,5-b]pyridin-7-yl)acetamide] | 6.00 to 7.00
COc1cccc(Nc2cnc3nnn(Cc4ccc5ncccc5c4)c3n2)n1 [Compound 197] | 7.00 to 9.00
c1cnc2ccc(Cn3nnc4ncc(Oc5ccncc5)nc43)cc2c1 [Compound 250] | 7.00 to 9.00
c1cc(Nc2cnc3nnn(Cc4ccc5ncccc5c4)c3n2)nc(N2CCOCC2)c1 [Compound 166] | 7.00 to 9.00
OCCOc1ccnc(Nc2cnc3nnn(Cc4ccc5ncccc5c4)c3n2)c1 [Compound 201] | 6.00 to 7.00
c1cnc2ccc(Cn3nnc4ccc(Nc5ccncc5)nc43)cc2c1 [Compound 236] | 6.00 to 7.00
CN(C)Cc1cnc2ccc(Cn3nnc4ncc(-c5cnn(C)c5)nc43)cn12 [Compound 319] | 7.00 to 9.00
OCCn1cc(-c2ccc3nnn(C4(c5ccc6ncccc6c5)CC4)c3n2)cn1 [Compound 123] | 6.00 to 7.00

Compound | pIC50
OCCn1cc(-c2ccc3nnn(Cc4ccc5nccn5n4)c3n2)cn1 [Compound 273] | 6.00 to 7.00
N#Cc1cc(Nc2ccc3nnn(Cc4ccc5ncccc5c4)c3n2)ccn1 [Compound 215] | 7.00 to 9.00
Cn1cc(-c2ccc3nnn(Cc4ccc5nccn5c4)c3n2)cn1 [Compound 133] | 7.00 to 9.00
OCc1ccc(-c2ccc3nnn(Cc4ccc5ncccc5c4)c3n2)s1 [Compound 104] | 7.00 to 9.00
CC(c1ccc2nccn2c1)n1nnc2ncc(-c3cnn(CC(F)(F)F)c3)nc21 (centres unmarked) [Compound 277] | 7.00 to 9.00
COc1cncc(Nc2ccc3nnn(Cc4ccc5ncccc5c4)c3n2)c1 [Compound 180] | 7.00 to 9.00
c1cnc2ccc(Cn3nnc4ncc(Nc5ccnc(O[C@H]6CCOC6)c5)nc43)cc2c1 [Compound 217] | 7.00 to 9.00
CCn1cc(-c2ccc3nnn(Cc4ccc5nccn5c4)c3n2)cn1 [Compound 135] | 7.00 to 9.00
Cc1coc(Nc2cnc3nnn(Cc4ccc5ncccc5c4)c3n2)n1 [Compound 199] | 7.00 to 9.00
CC(c1ccc2nccn2c1)n1nnc2ncc(-c3cn[nH]c3)nc21 (centres unmarked) [Compound 328] | 7.00 to 9.00
COCc1cnn2ccc(Cn3nnc4ncc(-c5cnn(CCO)c5)nc43)cc12 [Compound 322, 2-(4-(1-((3-(Methoxymethyl)pyrazolo[1,5-a]pyridin-5-yl)methyl)-1H-[1,2,3]triazolo[4,5-b]pyrazin-6-yl)-1H-pyrazol-1-yl)ethanol] | 7.00 to 9.00
c1cnc2ccc(Cn3nnc4ccc(-n5cccn5)nc43)cc2c1 [Compound 80] | 6.00 to 7.00
N#CCn1cc(-c2ccc3nnn(Cc4ccc5ncccc5c4)c3n2)cn1 [Compound 117] | 7.00 to 9.00
c1cnc2ccc(Cn3nnc4ccc(-n5ccnc5)nc43)cc2c1 [Compound 214] | 7.00 to 9.00
Cn1cc(-c2ccc3nnn(Cc4ccc5ncsc5c4)c3n2)cn1 [Compound 72] | 7.00 to 9.00
OCCOc1cc(Nc2cnc3nnn(Cc4ccc5ncccc5c4)c3n2)ccn1 [Compound 194] | 7.00 to 9.00
CCn1cc(-c2ccc3nnn(Cc4n[nH]c5ncccc45)c3n2)cn1 [Compound 137] | 7.00 to 9.00
Cc1cccc(Oc2cnc3nnn(Cc4ccc5ncccc5c4)c3n2)n1 [Compound 255] | 7.00 to 9.00
COc1ccc(-c2cnc3nnn(Cc4ccc5nccn5c4)c3n2)cn1 [Compound 276] | 7.00 to 9.00
Cc1cc(Nc2cnc3nnn(Cc4ccc5ncccc5c4)c3n2)on1 [Compound 160] | 7.00 to 9.00
COCCOc1ccc(-c2ccc3nnn(Cc4ccc5ncccc5c4)c3n2)cn1 [Compound 99] | 6.00 to 7.00

The remaining lines, values ahead:

pIC50 | Compound
7.00 to 9.00 | COc1ccc(-c2cnc3nnn(Cc4ccc5ncnn5c4)c3n2)cc1 [Compound 59]
7.00 to 9.00 | Cc1cnc(Nc2cnc3nnn(Cc4ccc5ncccc5c4)c3n2)s1 [Compound 176]
7.00 to 9.00 | c1cnc2ccc(Cn3nnc4ncc(Nc5ccncc5)nc43)cc2c1 [Compound 169]
7.00 to 9.00 | c1cnc2ccc(Cn3nnc4ncc(Nc5cc[nH]n5)nc43)cc2c1 [Compound 198]
7.00 to 9.00 | OCCn1cc(-c2cnc3nnn(Cc4ccc5ncnn5c4)c3n2)cn1 [Compound 54]
7.00 to 9.00 | N#Cc1ccc(-c2ccc3nnn(Cc4ccc5ncccc5c4)c3n2)s1 [Compound 102]
6.00 to 7.00 | CNc1ccc(Nc2cnc3nnn(Cc4ccc5ncccc5c4)c3n2)cn1 [Compound 187]
7.00 to 9.00 | COCCOc1cccc(Nc2cnc3nnn(Cc4ccc5ncccc5c4)c3n2)c1 [Compound 202]
7.00 to 9.00 | N#Cc1ccc(-c2cnc3nnn(Cc4ccn5nccc5c4)c3n2)cn1 [Compound 302]
7.00 to 9.00 | COCc1cnc2ccc([C@@H](C)n3nnc4ncc(-c5cnn(C)c5)nc43)cn12 [Compound 325]
7.00 to 9.00 | Cc1cnc2ccc(Cn3nnc4ncc(-c5cnn(C)c5)nc43)cn12 [Compound 298]
7.00 to 9.00 | CS(=O)(=O)Nc1ccc(-c2ccc3nnn(Cc4ccc5ncccc5c4)c3n2)cn1 [Compound 90]
7.00 to 9.00 | CNCc1cnc2ccc(Cn3nnc4ncc(-c5cnn(C)c5)nc43)cn12 [Compound 327, N-methyl-1-(6-((6-(1-methyl-1H-pyrazol-4-yl)-1H-[1,2,3]triazolo[4,5-b]pyrazin-1-yl)methyl)imidazo[1,2-a]pyridin-3-yl)methanamine]
6.00 to 7.00 | CC1N=CC(c2cnc3nnn(Cc4cc5cccnc5s4)c3n2)=N1 (centres unmarked) [Compound 2]
7.00 to 9.00 | CC(C)n1cc(-c2cnc3nnn(Cc4cc5[nH]ncc5s4)c3n2)cn1 [Compound 26]
6.00 to 7.00 | Cn1cc(-c2ccc3nnn(Cc4ccc5ncnn5c4)c3n2)cn1 [Compound 120]

pIC50 | Compound
7.00 to 9.00 | CC(c1c[nH]c2ncccc12)n1nnc2ccc(-c3cnn(CCO)c3)nc21 (centres unmarked) [Compound 113]
7.00 to 9.00 | Cc1cnc2ccc(Cn3nnc4ncc(-c5cnn(CCO)c5)nc43)cn12 [Compound 305]
7.00 to 9.00 | CNc1ccc(-c2ccc3nnn(Cc4ccc5ncccc5c4)c3n2)cn1 [Compound 76]
7.00 to 9.00 | OCCn1cc(-c2cnc3nnn(Cc4ccc5nccn5n4)c3n2)cn1 [Compound 281]
7.00 to 9.00 | COc1ccc(-c2ccc3nnn(Cc4ccc5ncccc5c4)c3n2)cn1 [Compound 70]
7.00 to 9.00 | FC(F)(F)Cn1cc(-c2cnc3nnn(Cc4ccc5nccn5n4)c3n2)cn1 [Compound 287]
7.00 to 9.00 | c1cnc2ccc(Cn3nnc4ncc(Nc5ccnc(NC6CCOC6)c5)nc43)cc2c1 (centres unmarked) [Compound 222]
6.00 to 7.00 | OCCn1cc(-c2ccc3nnn(Cc4ccc5ncsc5c4)c3n2)cn1 [Compound 73]
6.00 to 7.00 | Cc1ccc(-c2ccc3nnn(Cc4ccc5ncccc5c4)c3n2)cn1 [Compound 79]
7.00 to 9.00 | CN(c1ccnc(C#N)c1)c1cnc2nnn(Cc3ccc4ncccc4c3)c2n1 [Compound 239]
6.00 to 7.00 | c1cnc2ccc(Cn3nnc4ccc(OC5CCOCC5)nc43)cc2c1 [Compound 249]
7.00 to 9.00 | Nc1cccc(Oc2cnc3nnn(Cc4ccc5ncccc5c4)c3n2)n1 [Compound 259]
7.00 to 9.00 | N#Cc1ccnc(Nc2cnc3nnn(Cc4ccc5ncccc5c4)c3n2)c1 [Compound 223]
6.00 to 7.00 | CCn1ncc2sc(Cn3nnc4ncc(-c5cnn(CCO)c5)nc43)cc21 [Compound 38]
7.00 to 9.00 | OCCn1cc(-c2cnc3nnn(Cc4ccc5ncsc5c4)c3n2)cn1 [Compound 12]
